# Experimental data taken from patent US20180353483A1, “PHARMACEUTICAL COMPOSITIONS AND METHODS FOR INDOLEAMINE, 2, 3-DIOXYGENASE INHIBITION AND INDICATIONS THEREFOR” (Incyte Corporation, priority 2015, published 2018).
# Values joined by “and” are separate entries in the source; they are usually repeats but may differ in a detail not shown here. Identical values can stand only once. Like-named read-outs stand apart in the source and are kept apart here.
# Assay: Pharmacokinetics of Compound 1 in combination with MK-3475 in subjects with various cancers
# Type: in vivo, human
# Method: The subjects were not limited to a specific cancers and study include subjects with various cancers. […] One treatment cycle consisted of 21 days. […] Additional subjects were enrolled in a cohort to achieve the minimum of 3 evaluable subjects if dropouts or dose interruptions or reductions occur that result in a subject being non-evaluable for DLTs. […] An additional safety cohort was opened at 100 mg BID in parallel to 300 mg BID being tested. This may also be limited to subjects with melanoma, NSCLC, or specific cancer types from among those included in Phase 1. The RP2D was selected from the evaluated safety expansions.
# If a dose was missed by more than 4 hours, that dose was skipped and was resumed at the scheduled time.
# Pharmacokinetic samples were obtained at the visits of Cycle 1 Day 1, Cycle 1 Day 8 and Cycle 2 Day 1. […] The exact date and time of the PK blood draws were recorded in the eCRF along with the date and time of the last dose of study drug and details of the last meal preceding the blood draw.
# The planned PK time points were used for preliminary PK analyses.
# [1] = Cohort 1, 25 mg, first dose, geometric mean
# [2] = Cohort 1, 25 mg, first dose, mean ± SD
# [3] = Cohort 6, 300 mg BID, steady state C1D8, mean ± SD
# [4] = Diagnosis DLBCL, steady state C1D8, individual values of 2 subjects
# [5] = Diagnosis RCC, first dose, individual values of 2 subjects
# [6] = by dose, 25 mg, first dose, geometric mean
# [7] = by dose, 25 mg, first dose, mean ± SD
# [8] = by dose, 50 mg BID, steady state C1D8, mean ± SD
# [9] = by dose, 100 mg BID, steady state C1D8, mean ± SD
# [10] = by dose, 100 mg, first dose, geometric mean
structure (smiles),measurement,setting,value
"NS(=O)(=O)NCCNc1nonc1C(=NO)Nc1ccc(F)c(Br)c1 [Compound 1, 4-({2-[(aminosulfonyl)amino]ethyl}amino)-N-(3-bromo-4-fluorophenyl)-N′-hydroxy-1,2,5-oxadiazole-3-carboximidamide]",tmax,"All diagnoses, first dose, median",2.00 h
same,CL/F,"All diagnoses, steady state C1D8, mean ± SD",28.7 ± 10.3 L/h
same,tmax,"All diagnoses, steady state C1D8, median",2.00 h
same,CL/F,"Cohort 1, 25 mg BID, steady state C1D8, mean ± SD",46.2 ± 8.91 L/h
same,tmax,"Cohort 1, 25 mg BID, steady state C1D8, median",1.00 h
same,AUC(0-t),[1],(0.650) μM * h
same,Cmax,[1],199 nM
same,AUC(0-t),[2],0.711 ± 0.349 µM·h
same,Cmax,[2],231 ± 151 nM
same,tmax,"Cohort 1, 25 mg, first dose, median",2.00 h
same,CL/F,"Cohort 2, 50 mg BID, steady state C1D8, mean ± SD",52.6 ± 22.4 L/h
same,tmax,"Cohort 2, 50 mg BID, steady state C1D8, median",2.00 h
same,Cmax,"Cohort 2, 50 mg, first dose, geometric mean",543 nM
same,tmax,"Cohort 2, 50 mg, first dose, median",2.00 h
same,Cmax,"Cohort 3, 100 mg BID, steady state C1D8, geometric mean",814 nM
same,CL/F,"Cohort 3, 100 mg BID, steady state C1D8, mean ± SD",67.4 ± 34.9 L/h
same,tmax,"Cohort 3, 100 mg BID, steady state C1D8, median",2.00 h
same,CL/F,"Cohort 4 (MEL), 50 mg BID, steady state C1D8, mean ± SD",78.3 ± 28.9 L/h
same,tmax,"Cohort 4 (MEL), 50 mg, first dose, median",1.00 h
same,Cmax,"Cohort 5, 100 mg BID, steady state C1D8, geometric mean",803 nM
same,CL/F,"Cohort 5, 100 mg BID, steady state C1D8, mean ± SD",69.6 ± 28.4 L/h
same,tmax,"Cohort 5, 100 mg BID, steady state C1D8, median",2.00 h
same,Cmax,"Cohort 6, 300 mg BID, steady state C1D8, geometric mean",2500 nM
same,CL/F,[3],64.8 ± 23.2 L/h
same,Cmax,[3],2710 ± 1220 nM
same,tmax,"Cohort 6, 300 mg BID, steady state C1D8, median",2.00 h
same,tmax,"Cohort 6, 300 mg, first dose, median",2.00 h
same,Cmax,"Cohort 7, 300 mg BID, steady state C1D8, geometric mean",2520 nM
same,CL/F,"Cohort 7, 300 mg BID, steady state C1D8, mean ± SD",65 ± 23.4 L/h
same,tmax,"Cohort 7, 300 mg BID, steady state C1D8, median",2.00 h
same,tmax,"Cohort 7, 300 mg, first dose, median",2.00 h
same,AUC(0-t),"Diagnosis DLBCL, first dose, mean ± SD",2.29 ± 1.16 µM·h
same,AUC0-12 h,[4],3.99 µM·h
same,CL/F,[4],21.4 L/h and 28.6 L/h
same,Cmax,[4],904 nM
same,tmax,[4],"4.0, 4.0 h"
same,tmax,"Diagnosis GU, first dose, median",2.00 h
same,CL/F,"Diagnosis GU, steady state C1D8, mean ± SD",28.1 ± 10.0 L/h
same,tmax,"Diagnosis GU, steady state C1D8, median",2.00 h
same,Cmax,"Diagnosis MEL, first dose, geometric mean",809 nM
same,tmax,"Diagnosis MEL, first dose, median",2.00 h
same,CL/F,"Diagnosis MEL, steady state C1D8, mean ± SD",33.0 ± 10.0 L/h
same,tmax,"Diagnosis MEL, steady state C1D8, median",2.00 h
same,Cmax,"Diagnosis NSCLC PD-L1 High, steady state C1D8, geometric mean",815 nM
same,CL/F,"Diagnosis NSCLC PD-L1 High, steady state C1D8, mean ± SD",29.2 ± 10.4 L/h
same,Cmax,"Diagnosis NSCLC PD-L1 Low/NE, first dose, mean ± SD",914 ± 343 nM
same,tmax,"Diagnosis NSCLC PD-L1 Low/NE, first dose, median",1.00 h
same,CL/F,"Diagnosis NSCLC PD-L1 Low/NE, steady state C1D8, mean ± SD",26.9 ± 4.57 L/h
same,tmax,"Diagnosis NSCLC PD-L1 Low/NE, steady state C1D8, median",2.00 h
same,tmax,"Diagnosis OC, first dose, median",2.00 h
same,CL/F,"Diagnosis OC, steady state C1D8, mean ± SD",27.9 ± 8.82 L/h
same,tmax,"Diagnosis OC, steady state C1D8, median",2.00 h
same,AUC(0-t),[5],3.58 µM·h and 1.74 µM·h
same,Cmax,[5],1350 nM and 418 nM
same,tmax,[5],2.0 h
same,AUC(0-t),"Diagnosis SCCHN, first dose, mean ± SD",2.32 ± 1.10 µM·h
same,tmax,"Diagnosis SCCHN, first dose, median",2.00 h
same,CL/F,"Diagnosis SCCHN, steady state C1D8, mean ± SD",33.3 ± 15.5 L/h
same,tmax,"Diagnosis SCCHN, steady state C1D8, median",2.00 h
same,tmax,"Diagnosis TNBC, first dose, median",2.00 h
same,CL/F,"Diagnosis TNBC, steady state C1D8, mean ± SD",25.7 ± 8.22 L/h
same,tmax,"Diagnosis TNBC, steady state C1D8, median",2.00 h
same,CL/F,"Dose Reduction By C4D1 subjects (Table 13), steady state C1D8, mean ± SD",28.4 ± 11.1 L/h
same,tmax,"Dose Reduction By C4D1 subjects (Table 13), steady state C1D8, median",2.00 h
same,CL/F,"by dose, 25 mg BID, steady state C1D8, mean ± SD",46.2 ± 8.91 L/h
same,tmax,"by dose, 25 mg BID, steady state C1D8, median",1.00 h
same,AUC(0-t),[6],(0.650) μM * h
same,Cmax,[6],199 nM
same,AUC(0-t),[7],0.711 ± 0.349 µM·h
same,Cmax,[7],231 ± 151 nM
same,tmax,"by dose, 25 mg, first dose, median",2.00 h
same,Cmax,"by dose, 50 mg BID, steady state C1D8, geometric mean",452 nM
same,CL/F,[8],68.8 ± 29.0 L/h
same,Cmax,[8],502 ± 237 nM
same,tmax,"by dose, 50 mg BID, steady state C1D8, median",2.00 h
same,Cmax,"by dose, 50 mg, first dose, geometric mean",500 nM
same,Cmax,"by dose, 50 mg, first dose, mean ± SD",537 ± 217 nM
same,tmax,"by dose, 50 mg, first dose, median",2.00 h
same,Cmax,"by dose, 100 mg BID, steady state C1D8, geometric mean",806 nM
same,CL/F,[9],69.1 ± 28.9 L/h
same,Cmax,[9],917 ± 424 nM
same,tmax,"by dose, 100 mg BID, steady state C1D8, median",2.00 h
same,AUC(0-t),[10],(2.32) μM * h
same,Cmax,[10],719 nM
same,Cmax,"by dose, 100 mg, first dose, mean ± SD",803 ± 378 nM
same,tmax,"by dose, 100 mg, first dose, median",2.00 h
same,Cmax,"by dose, 300 mg BID, steady state C1D8, geometric mean",2510 nM
same,CL/F,"by dose, 300 mg BID, steady state C1D8, mean ± SD",64.9 ± 22.7 L/h
same,tmax,"by dose, 300 mg BID, steady state C1D8, median",2.00 h
same,Cmax,"by dose, 300 mg, first dose, geometric mean",2020 nM
same,Cmax,"by dose, 300 mg, first dose, mean ± SD",2290 ± 1230 nM
same,tmax,"by dose, 300 mg, first dose, median",2.00 h
same,Cmax,"human, plasma, oral, 25 mg, Cohort 1, 25 mg BID, steady state C1D8, geometric mean",276 nM
same,AUC(0-t),"human, plasma, oral, 25 mg, Cohort 1, 25 mg BID, steady state C1D8, geometric mean, read-out: AUC0-12 h (converted)",1.25 µM·h
same,Cmax,"human, plasma, oral, 25 mg, Cohort 1, 25 mg BID, steady state C1D8, mean ± SD",307 ± 150 nM
same,AUC(0-t),"human, plasma, oral, 25 mg, Cohort 1, 25 mg BID, steady state C1D8, mean ± SD, read-out: AUC0-12 h (converted)",1.27 ± 0.23 µM·h
same,Cmax,"human, plasma, oral, 25 mg, by dose, 25 mg BID, steady state C1D8, geometric mean",276 nM
same,AUC(0-t),"human, plasma, oral, 25 mg, by dose, 25 mg BID, steady state C1D8, geometric mean, read-out: AUC0-12 h (converted)",1.25 µM·h
same,Cmax,"human, plasma, oral, 25 mg, by dose, 25 mg BID, steady state C1D8, mean ± SD",307 ± 150 nM
same,AUC(0-t),"human, plasma, oral, 25 mg, by dose, 25 mg BID, steady state C1D8, mean ± SD, read-out: AUC0-12 h (converted)",1.27 ± 0.23 µM·h
same,Cmax,"human, plasma, oral, 50 mg, Cohort 2, 50 mg BID, steady state C1D8, geometric mean",550 nM
same,AUC(0-t),"human, plasma, oral, 50 mg, Cohort 2, 50 mg BID, steady state C1D8, geometric mean, read-out: AUC0-12 h (converted)",2.34 µM·h
same,Cmax,"human, plasma, oral, 50 mg, Cohort 2, 50 mg BID, steady state C1D8, mean ± SD",603 ± 227 nM
same,AUC(0-t),"human, plasma, oral, 50 mg, Cohort 2, 50 mg BID, steady state C1D8, mean ± SD, read-out: AUC0-12 h (converted)",2.53 ± 1.02 µM·h
same,AUC(0-t),"human, plasma, oral, 50 mg, Cohort 2, 50 mg, first dose, geometric mean, read-out: AUC0-t",1.53 µM·h
same,Cmax,"human, plasma, oral, 50 mg, Cohort 2, 50 mg, first dose, mean ± SD",574 ± 216 nM
same,AUC(0-t),"human, plasma, oral, 50 mg, Cohort 2, 50 mg, first dose, mean ± SD, read-out: AUC0-t",1.6 ± 0.507 µM·h
same,Cmax,"human, plasma, oral, 50 mg, Cohort 4 (MEL), 50 mg BID, steady state C1D8, geometric mean",403 nM
same,AUC(0-t),"human, plasma, oral, 50 mg, Cohort 4 (MEL), 50 mg BID, steady state C1D8, geometric mean, read-out: AUC0-12 h (converted)",1.58 µM·h
same,Cmax,"human, plasma, oral, 50 mg, Cohort 4 (MEL), 50 mg BID, steady state C1D8, mean ± SD",442 ± 232 nM
same,AUC(0-t),"human, plasma, oral, 50 mg, Cohort 4 (MEL), 50 mg BID, steady state C1D8, mean ± SD, read-out: AUC0-12 h (converted)",1.77 ± 1.12 µM·h
same,tmax,"human, plasma, oral, 50 mg, Cohort 4 (MEL), 50 mg BID, steady state C1D8, median, read-out: tmax",1.5 h
same,AUC(0-t),"human, plasma, oral, 50 mg, Cohort 4 (MEL), 50 mg, first dose, geometric mean, read-out: AUC0-t",1.2 µM·h
same,AUC(0-t),"human, plasma, oral, 50 mg, Cohort 4 (MEL), 50 mg, first dose, mean ± SD, read-out: AUC0-t",1.32 ± 0.698 µM·h
same,Cmax,"human, plasma, oral, 50 mg, Cohort 4 (MEL), first dose, geometric mean",474 nM
same,Cmax,"human, plasma, oral, 50 mg, Cohort 4 (MEL), first dose, mean ± SD",512 ± 224 nM
same,AUC(0-t),"human, plasma, oral, 50 mg, by dose, 50 mg BID, steady state C1D8, geometric mean, read-out: AUC0-12 h (converted)",1.83 µM·h
same,AUC(0-t),"human, plasma, oral, 50 mg, by dose, 50 mg BID, steady state C1D8, mean ± SD, read-out: AUC0-12 h (converted)",2.05 ± 1.12 µM·h
same,AUC(0-t),"human, plasma, oral, 50 mg, by dose, 50 mg, first dose, geometric mean, read-out: AUC0-t",1.33 µM·h
same,AUC(0-t),"human, plasma, oral, 50 mg, by dose, 50 mg, first dose, mean ± SD, read-out: AUC0-t",1.43 ± 0.63 µM·h
same,Cmax,"human, plasma, oral, 50 mg, subjects with dose reduction before C4D1, 50 mg BID, C1D8, geometric mean",519 nM
same,Cmax,"human, plasma, oral, 50 mg, subjects with dose reduction before C4D1, 50 mg BID, C1D8, mean ± SD",557 ± 260 nM
same,Cmax,"human, plasma, oral, 100 mg BID, All diagnoses, steady state C1D8, geometric mean",1010 nM
